Results published in EP0140154A2, “1,2,4-Triazolylpropanols, and their production and use” (SUMITOMO CHEMICAL COMPANY, LIMITED, priority 1983, dated 1985).
Structures can show the parent of a compound that is named as a salt.

Assays:
Candida albicans KB-8 = experiment: Antifungal activity test (in vivo), Candida albicans infection in mice; conditions: DDY male mice infected i.v. with 10^7 cells; oral, total dose 20 mg/kg at 0, 5, 24 and 48 hours after infection; 10 days observation; number in brackets is the non-medicated control
Method: Antifungal activity test (in vivo):-Candida albicans KB-8 as pre-cultured at 30°C for 4 days was suspended in physiologically saline solution, and the suspension was intravenously injected into DDY strain
male mice of 5 weeks old, every 10 animals being grouped, through the tail vein so as to inoculate a cell number of 10^7 per animal.
(§1) The animals were orally medicated with the test compound in the form of 0.5 % methylcellulose suspension at a total dose of 20 mg per kg of the body weight 0, 5, 24 and 48 hours after the infection, and observation was continued for 10 days after the infection. The results are shown in Table 2, wherein the numeral indicates an average number of survival days of 10 animals as one group in contrast to that of the non-medicated (control) group.
For comparison, the following compounds were also tested: [drawing 6] [drawing 7]

Acute toxicity = conditions: mouse, in vivo; DDY male mice, oral, 0.5 % methylcellulose suspension, seven days after medication, Probit method
Method: Acute toxicity:- • DDY strain male mice of 5 weeks old, every 10 mice being grouped, received orally the test compound in the form of 0.5 % methylcellulose suspension at a dose from five kinds increasing with a common ratio of 1.3, and observation on the death of animals was continued. Seven days after the medication, the LD50 value was calculated from the rate of death according to the Probit method.

[1] = system: Aspergillus fumigatus MTU 16001; experiment: Antifungal activity test (in vivo), Aspergillus fumigatus infection in mice; conditions: DDY male mice infected i.v. with 2 x 10^6 cells, oral; for Survival rate at complete death of non-medicated group (%): total dose 20 mg/kg at 0, 5, 24 and 48 hours; for Average survival day(s): total dose 20 mg/kg, 10 days observation
Method: (§2) Antifungal activity test (in vivo):- • Aspergillus fumigatus MTU 16001 or Cryptococcus neoformans MTU 13001 as pre-cultured at 30°C for 4 days was suspended in physiologically saline solution, and the suspension was intravenously injected into DDY strain male mice of 5 weeks old (body weight, 24 - 27 g), every 10 animals being grouped, through the tail vein so as to inoculate a cell number of 2 x 10^6 per animal.
as §1, with “3,” for “2,”

[2] = Liver weight increase test; format: in vivo, DDY strain male mice; conditions: mice infected with Candida albicans KB-8, survived animals
From the text: Liver weight increase test:- • Candida albicans KB-8 was intraveously injected into DDY strain male mice of 5 weeks old, every 20 animals being grouped, at a rate of […] cells per mouse. After infection, the animals were orally medicated with the test compound in the form of 0.5 % methylcellulose suspension once a day for 20 consecutive days, during which observation on the liver weight was continued.
The average liver weight in survived animals as calculated are shown in Table 5, from which it is understood that the liver weight is not increased when the compound of the invention is given at a daily dose of not more than 4 mg/kg, while the liver weight is increased when the compound of Japanese Patent Publn. (unexamined) No. 185571/83 is given at a daily dose of not less than 1 mg/kg.

[3] = system: Cryptococcus neoformans MTU 13001; experiment: Antifungal activity test (in vivo), Cryptococcus neoformans infection in mice; conditions: DDY male mice infected i.v. with 2 x 10^6 cells, oral; for Survival rate at complete death of non-medicated group (%): total dose 20 mg/kg at 0, 5, 24 and 48 hours; for Average survival day(s): total dose 20 mg/kg, 10 days observation
Method: as §2
as §1, with “3,” for “2,”

[4] = dose 0.5 mg/kg p.o. once a day for 20 consecutive days
[5] = dose 1.0 mg/kg p.o. once a day for 20 consecutive days
[6] = dose 2.0 mg/kg p.o. once a day for 20 consecutive days
[7] = dose 4.0 mg/kg p.o. once a day for 20 consecutive days
[8] = dose 8.0 mg/kg p.o. once a day for 20 consecutive days

With CC(C)CC[S+]([O-])CC(O)(Cn1cncn1)c1ccc(Cl)cc1Cl (single isomer, unassigned) [3A] as the molecule, how does the “Average survival days (control)” value (Candida albicans KB-8) read?
The value was 7.7 (1.2) days.

What about the LD50 at 168 h (Acute toxicity) of the same molecule?
The LD50 at 168 h was greater than 2000 mg/kg.

With CCC(C)(C)S(=O)(=O)CC(O)(Cn1cncn1)c1ccc(Cl)cc1Cl (stereo not drawn) [II, reference compound] as the molecule, how does the “Average survival days (control)” value (Candida albicans KB-8) read?
The value was 1.4 (1.0) days.

With CCCC(C)[S+]([O-])CC(O)(Cn1cncn1)c1ccc(Cl)cc1Cl (single isomer, unassigned) [4A] as the molecule, how does the “Average survival days (control)” value (Candida albicans KB-8) read?
The value was 9.2 (1.2) days.

What about the LD50 at 168 h (Acute toxicity) of the same molecule?
The LD50 at 168 h was greater than 1500 mg/kg.

With CS(=O)(=O)CC(O)(Cn1cncn1)c1ccc(Cl)cc1Cl (stereo not drawn) [I, reference compound] as the molecule, how does the “Survival rate at complete death of non-medicated group (%)” value [1] read?
Its value is 60%.

What about the “Average survival day(s)” value [1] of the same molecule?
The value was 233000 s.

What about the “Average survival days (control)” value (Candida albicans KB-8) of the same molecule?
Its value is 9.6 (1.2) days.

And the “Average weight of liver” value [2, 4]?
Its value is 1.30 g.

And the “Average weight of liver” value [2, 5]?
Its value is 1.50 g.

What about the “Average weight of liver” value [2, 6] of the same molecule?
Its value is 1.70 g.

What about the “Average weight of liver” value [2, 7] of the same molecule?
The value was 1.85 g.

And the “Average weight of liver” value [2, 8]?
Its value is 1.90 g.

And the “Survival rate at complete death of non-medicated group (%)” value [3]?
Its value is 80%.

What about the “Average survival day(s)” value [3] of the same molecule?
The value was 674000 s.

And the LD50 at 168 h (Acute toxicity)?
Its LD50 at 168 h is 770 mg/kg.

Which “Average survival days (control)” value (Candida albicans KB-8) does the source give for CC(=O)N1CCN(c2ccc(OCC3COC(Cn4ccnc4)(c4ccc(Cl)cc4Cl)O3)cc2)CC1 (stereo not drawn) [Ketoconazole, reference compound] here?
The value was 4.8 (0.8) days.

What about the LD50 at 168 h (Acute toxicity) of the same molecule?
Its LD50 at 168 h is 1100 mg/kg.

With CCC(CC)[S+]([O-])CC(O)(Cn1cncn1)c1ccc(Cl)cc1Cl (single isomer, unassigned) [5A] as the molecule, how does the “Average survival days (control)” value (Candida albicans KB-8) read?
Its value is 8.9 (1.2) days.

And the LD50 at 168 h (Acute toxicity)?
Its LD50 at 168 h is greater than 2000 mg/kg.

For CCC(C)(C)[S+]([O-])CC(O)(Cn1cncn1)c1ccc(Cl)cc1Cl (stereo not drawn) [Compound No. 2A, 2-(2,4-dichlorophenyl)-3-tert-pentylsulfinyl-1-(1,2,4-triazol-1-yl)propan-2-ol], which “Survival rate at complete death of non-medicated group (%)” value [1] is on record?
Its value is 70%.

And the “Average survival day(s)” value [1]?
Its value is 311000 s.

And the “Average survival days (control)” value (Candida albicans KB-8)?
Its value is 9.7 (1.2) days.

And the “Survival rate at complete death of non-medicated group (%)” value [3]?
Its value is 90%.

What about the “Average survival day(s)” value [3] of the same molecule?
Its value is 743000 s.

And the LD50 at 168 h (Acute toxicity)?
Its LD50 at 168 h is 1830 mg/kg.

With CCCCC[S+]([O-])CC(O)(Cn1cncn1)c1ccc(Cl)cc1Cl (single isomer, unassigned) [1A, 2-(2,4-dichlorophenyl)-3-n-pentylsulfinyl-l-(l,2,4-triazol-1-yl)propan-2-ol oxalate] as the molecule, how does the “Average survival days (control)” value (Candida albicans KB-8) read?
Its value is 9.0 (1.2) days.

And the “Average weight of liver” value [2, 4]?
The value was 1.20 g.

What about the “Average weight of liver” value [2, 5] of the same molecule?
Its value is 1.18 g.

And the “Average weight of liver” value [2, 6]?
The value was 1.15 g.

What about the “Average weight of liver” value [2, 7] of the same molecule?
Its value is 1.25 g.

And the “Average weight of liver” value [2, 8]?
The value was 1.60 g.

What about the LD50 at 168 h (Acute toxicity) of the same molecule?
The LD50 at 168 h was 1740 mg/kg.
